Laboratory results taken from patent US9290551B2, “Compounds for treating papilloma virus infection” (NanoVir, LLC, priority 2012, dated 2016).
Where two headings read alike, the source gives them in different places.

What was measured:
[1] = test system: HPV 16; experiment: HPV 16 episome DNA levels in W12E cells by Q-PCR (Taqman); type: cell-based, Human papilloma virus
[2] = MTT cell viability assay; settings: human, keratinocytes that maintain HPV 16 episomes
Description: (§1) Cells were cultured for 5 days in the presence of polyamide; % Cell Viability=(OD590 drug/OD590 control)×100; n=3.
(§2) Solubilisation of the cells by the addition of a detergent results in the liberation of the crystals which are solubilized. The number of surviving cells is directly proportional to the level of the formazan product created. The color can then be quantified using a simple colorimetric assay. The results can be read on a multiwell scanning spectrophotometer (ELISA reader).
(§3) Cell viability was also assessed routinely with the MTT assay.

[3] = test system: Keratinocytes that maintain HPV 16 episomes; experiment: MTT cell viability assay; settings: MTT assay; FIG. 2B, FIG. 5
Description: as §1, §2, §3

[4] = test system: HPV31; experiment: HPV31 DNA levels in keratinocytes by real-time PCR; type: cell-based, Human papilloma virus; settings: effective (pseudo) IC50
Description: (§4) Human keratinocytes, including those maintaining HPV episomes, are cultured on mitomycin C-treated J2 3T3 cells in media containing three parts Dulbecco's modified Eagle medium (DMEM) and one part F12 media, our modification of published methods (Rheinwald and Green, 1975). Media (E Media) is supplemented with 0.4 μg/mL hydrocortisone, 10 ng/mL cholera toxin, 5 μg/mL insulin, 24 μg/mL adenine, 5 μg/mL transferrin, […] (T3), 10 ng/mL epidermal growth factor (EGF), 1% penicillin-streptomycin, and 5% fetal bovine serum (FBS). All cells are passaged at 70% confluency at a split ratio of 1:5.
(§5) Polyamides for HPV 18 are dissolved at 10 mM in 100% DMSO and diluted with H2O to 1 mM. Polyamides are added to cells in E media at final concentrations of 0.1-10 μM, with final DMSO concentrations of 0.1%. As controls, cells are incubated with normal E media and E media containing the “vehicle” 0.1% DMSO. The HPV DNA levels are then quantified according to previously published procedures (Garner-Hamrick and Fisher, Virology, 301, 334-41, 2002). After incubation, cells are harvested from the plates by either trypsinization or direct lysis with proteinase K digestion buffer (PK buffer: 100 mM NaCl, 10 mM Tris pH 8, 25 mM EDTA, 0.5% SDS, 0.1 mg/mL proteinase K). Trypsinized cells are counted on a hemocytometer and pelleted by centrifugation. Episomal HPV is isolated by the Hirt method (Hirt, 1967) and cell pellets are lysed in 0.6% SDS with 10 mM EDTA. NaCl is next added to a final concentration of 1 M. Following an overnight incubation at 4° C., precipitates containing the chromosomal DNA are spun down and episomal DNA precipitated by the addition of isopropanol. Cells lysed directly in PK buffer are transferred to microfuge tubes and incubated at 50° C. for 2 h. Lysates are then extracted with phenol/chloroform/isoamyl alcohol and spun through a phase lock gel (Eppendorf, Hamburg, Germany). Total DNA is then precipitated with 0.3 M NaOAc and 2.5 vol. ethanol and resuspended in Tris-EDTA (TE) buffer.
HPV31 primers-probe sets for PCR were also designed within the L1 gene:
(§6) All primers and probes are synthesized and HPLC purified by Applied Biosystems (Foster City, Calif.). The HPV probes are labeled with the 5′ reporter dye FAM (6-carboxy-fluorescein) and the 3′ quencher dye TAMRA (6-carboxytetramethyl-rhodamine). A standard curve is generated using a range of 10^8 to 10 copies/reaction of cloned, genomic HPV31 or HPV18 DNA using the following formula: (1.82×10^15)(μg/μL stock DNA)/(length in base pairs)(2)=copies/μL stock DNA. PCR reactions contain final concentrations of 1× Universal Master Mix (PE Applied Biosystems), 200 nM of each primer, and 250 nM probe (PE Applied Biosystems) in a reaction volume of 25 μL. Each Hirt-isolated DNA sample is analyzed in triplicate reactions for episomal HPV. Copies/reaction are determined from the standard curve, and copies/cell determined according to the following formula: (copies/reaction)×(DNA dilution)/(total # cells)=copies/cell.

[5] = test system: HPV episomal DNA; experiment: Southern blot of HPV episomal DNA; type: cell-based, Human papilloma virus; settings: 1 μM and 10 μM; FIG. 4
Description: Several alternative approaches have been used to confirm the effects of our compounds on viral DNA. […] DMSO is the vehicle control; HPV DNA indicates the linearized HPV DNA used to generate the hybridization probe via random primed labeling with DIG-dUTP (Roche); following hybridization, blot was incubated with anti-DIG-AP conjugate and HPV DNA detected using ECF substrate (Amersham) and Storm phosphorimager. […] Other NV compounds have similarly shown the expected decrease in viral DNA by Southern blotting.

[6] = test system: HPV18; experiment: HPV18 DNA levels in keratinocytes by real-time PCR; type: cell-based, Human papilloma virus; settings: effective (pseudo) IC50
Description: as §4, §5
Viral DNA levels are next quantified according to variations on our previously published methods (Garner-Hamrick and Fisher, Virology, 301, 334-41, 2002). Quantitative PCR is performed using Real-Time PCR technology on an ABI PRISM 7700 Sequence Detector. All primers and probes were designed using Primer Express 1.0 (ABI). For HPV 18, PCR primer-probe sets were designed within the L1 gene:
as §6

[7] = test system: HPV 16; experiment: HPV 16 episome DNA levels in W12E cells by Q-PCR (Taqman); type: cell-based, Human papilloma virus; settings: 10 μM, drug washed out on day 17, sub-cultured without drug for 2 weeks; FIG. 7
[8] = test system: rat hepatoma cells (H4IIE); type: cell-based
Description: (§7) Toxicity testing has been carried out for 3 separate polyamides. Two different Rat hepatoma assays were used because they are industry standards for predicting in vivo toxicity. The assays for ATP and membrane integrity assays are described in detail below. Thus, rat hepatoma cells (H4IIE) were seeded into 96-well plates and cultured in medium containing 20% bovine serum. Following an equilibration period of 48 hr, the cells were treated with the test compounds at various concentrations for 24 hr at 37° C. in 5% CO2. Polyamide compounds were tested for toxicity in the two separate assays. A TC50 (concentration needed to kill half of the cells) was not achieved for any polyamides tested over the wide concentration range explored.

[9] = Membrane integrity / modified propidium iodide procedure; type: cell-based; settings: rat, membrane integrity assay, read-out: TC50
Description: as §7
A modified propidium iodide (PI) procedure was used to assess cell proliferation/viability. This specific nucleic acid binding dye fluoresces when intercalated within the nucleic acids. The […] enhances PI fluorescence approximately 20 times while the excitation maxima are shifted 30-40 ηm. During method development experiments, it was determined that Triton-X-100 was the best solution to permeabilize the H4IIE cells thereby allowing the PI access to intracellular RNA and DNA. Fluorescence was measured using a Packard Fusion plate reader at 540 ηm excitation and 610 nm emission.

[10] = effective (pseudo) IC50, 50% reduction in HPV DNA relative to vehicle (0.1% DMSO), read-out: HPV-16 IC50

Question: Which results are given for Nc1ccn(C[C@@H](CO)OCP(=O)(O)O)c(=O)n1 [Cidofovir, reference compound]?
Answer: loss of total HPV DNA content ([1]; 72 hours, only at very high concentrations, FIG. 1): approximately 40%; selectivity index (SI: ratio of IC50 to TD50) ([1]; cell culture): 2.5; effect on HPV viral DNA ([1]; comparison of 1037, distamycin A and cidofovir, FIG. 5): only effective against HPV DNA at high concentrations; CC50 [2]: 750000 nM; effect on cell viability [3]: also affect cell viability

Question: What does the source list for CN(CCCN)CCCNC(=O)CCNC(=O)c1cc(NC(=O)c2cc(NC(=O)c3cc(NC(=O)CCNC(=O)c4cc(NC(=O)c5cc(NC(=O)c6cc(NC(=O)[C@H](N)CCNC(=O)c7cc(NC(=O)c8cc(NC(=O)c9cc(NC(=O)CCNC(=O)c%10cc(NC(=O)c%11cc(NC(=O)c%12nccn%12C)cn%11C)cn%10C)cn9C)cn8C)cn7C)cn6C)cn5C)cn4C)cn3C)cn2C)cn1C [Polyamide 1020, ImPPβPPPγNH2PPPβPPPβTa]?
Answer: IC50 [4]: 100 to 1000 nM; episomal DNA content by Southern blot [5]: expected decrease in episomal DNA content; IC50 [1, 10]: > 1000 nM

Question: For CN(CCCN)CCCNC(=O)CCNC(=O)c1cc(NC(=O)c2cc(NC(=O)c3cc(NC(=O)c4cc(NC(=O)CCNC(=O)c5cc(NC(=O)c6cc(NC(=O)CCCNC(=O)c7cc(NC(=O)c8cc(NC(=O)c9cc(NC(=O)CCNC(=O)c%10cc(NC(=O)c%11cc(NC(=O)c%12nccn%12C)cn%11C)cn%10C)cn9C)cn8C)cn7C)cn6C)cn5C)cn4C)cn3C)cn2C)cn1C [Polyamide 1028, ImPPβPPPγPPβPPPPβTa], which IC50 [4] is on record?
Answer: Its IC50 is 100 to 1000 nM.

Question: And the IC50 [6]?
Answer: The IC50 was 100 to 1000 nM.

Question: And the “HPV 16 episomal DNA rebound after withdrawal” value [7]?
Answer: The value was “recovery does not approach control levels for at least two weeks”.

Question: What about the “HPV episomes by QPCR” value ([1]; concentrations as low as 5 μM) of the same molecule?
Answer: Its value is “undetectable levels”.

Question: And the IC50 [1, 10]?
Answer: Its IC50 is 100 to 1000 nM.

Question: What about the “effect on absolute HPV 16 DNA levels” value ([1]; higher doses, in some experiments, FIG. 3) of the same molecule?
Answer: Its value is “nearly complete elimination of detectable viral DNA”.

Question: What about the IC50 ([1]; read-out: IC50 against HPV 16) of the same molecule?
Answer: Its IC50 is 100 nM.

Question: What about the CC50 [8] of the same molecule?
Answer: Its CC50 is greater than 300000 nM.

Question: Which CC50 at 24 h ([9]; H4IIE rat hepatoma cells) does the source give for CC[C@@]1(O)C(=O)OCc2c1cc1n(c2=O)Cc2cc3ccccc3nc2-1 [camptothecin] here?
Answer: The CC50 at 24 h was 5000 nM.

Question: Which CC50 at 24 h [9] does the source give for C=C(C)[C@H]1Cc2c(ccc3c2O[C@@H]2COc4cc(OC)c(OC)cc4[C@@H]2C3=O)O1 [rotenone] here?
Answer: The CC50 at 24 h was 490 nM.
